pIC50: −log10 of the molar value.
Key:
DNA-PK = DNA-PK (Homo sapiens, UniProt P78527); experiment: Z'-LYTE / Adapta biochemical kinase assay, DNA-PK; conditions: for inhibition at 0.1 µM: concentration of 100 nM/liter, read-out: Percent Inhibition of target enzymes, DNA-PK
Description: The Z′-LYTE® biochemical assay employs a fluorescence-based, coupled-enzyme format and is based on the differential sensitivity of phosphorylated and non-phosphorylated peptides to proteolytic cleavage. The peptide substrate is labeled with two fluorophores—one at each end—that make up a FRET pair. In the primary reaction, the kinase transfers the gamma-phosphate of ATP to a single tyrosine, serine or threonine residue in a synthetic FRET-peptide. In the secondary reaction, a site-specific protease recognizes and cleaves non-phosphorylated FRET-peptides. Phosphorylation of FRET-peptides suppresses cleavage by the Development Reagent. Cleavage disrupts FRET between the donor (i.e., coumarin) and acceptor (i.e., fluorescein) fluorophores on the FRET-peptide, whereas uncleaved, phosphorylated FRET-peptides maintain FRET. A ratiometric method, which calculates the ratio (the Emission Ratio) of donor emission to acceptor emission after excitation of the donor fluorophore at 400 nm, is used to quantitate reaction progress.
A significant benefit of this ratiometric method for quantitating reaction progress is the elimination of well-to-well variations in FRET-peptide concentration and signal intensities. As a result, the assay yields very high Z′-factor values (>0.7) at a low percent phosphorylation.
Both cleaved and uncleaved FRET-peptides contribute to the fluorescence signals and therefore to the Emission Ratio. The extent of phosphorylation of the FRET-peptide can be calculated from the Emission Ratio. The Emission Ratio will remain low if the FRET-peptide is phosphorylated (i.e., no kinase inhibition) and will be high if the FRET-peptide is non-phosphorylated (i.e., kinase inhibition).
Enzyme: The ADAPTA universal kinase assay is a homogenous, fluorescent based immunoassay for the detection of ADP. In contrast to ATP depletion assays, the ADAPTA assay is extremely sensitive to ADP formation such that a majority of the signal change occurs in the first 10-20% conversion of ATP to ADP. This makes the ADAPTA universal kinase assay ideally suited for use with low activity kinases.
The principle of the ADAPTA universal kinase assay is outlined below. The assay itself can be divided into two phases: a kinase reaction phase, and an ADP detection phase. In the kinase reaction phase, all components required for the kinase reaction are added to the well, and the reaction is allowed to incubate for 60 minutes. After the reaction, a detection solution consisting of a europium labeled anti-ADP antibody, an Alexa Fluor® 647 labeled ADP tracer, and EDTA (to stop the kinase reaction) is added to the assay well. ADP formed by the kinase reaction (in the absence of an inhibitor) will displace the Alexa Fluor® 647 labeled ADP tracer from the antibody, resulting in a decrease in the TR-FRET signal. In the presence of an inhibitor, the amount of ADP formed by the kinase reaction is reduced, and the resulting intact antibody-tracer interaction results in a high TR-FRET signal.
Test Compounds: The Test Compounds are screened in 1% DMSO (final) in the well. For 10 point titrations, 3-fold serial dilutions are conducted from the starting concentration of the customer’s choosing.
Peptide/Kinase Mixtures: All Peptide/Kinase Mixtures are diluted to a 2X working concentration in the appropriate Kinase Buffer.
ATP Solution: All ATP Solutions are diluted to a 4X working concentration in Kinase Buffer (50 mM HEPES pH 7.5, 0.01% BRIJ-35, 10 mM MgCl2,1 mM EGTA). ATP Km apparent is previously determined using a Z′-LYTE® assay.
Development Reagent Solution: The Development Reagent is diluted in Development Buffer.
Assay Protocol: Bar-coded Corning, low volume NBS, black 384-wellplate (Corning Cat. #4514) 1. 2.5 µL - 4X Test Compound or 100 nL 100X plus 2.4 µL kinase buffer. 2. 5 µL - 2X Peptide/Kinase Mixture. 3. 2.5 µL - 4X ATP Solution. 4. 30-second plate shake. 5. 60-minute Kinase Reaction incubation at room temperature. 6. 5 µL - Development Reagent Solution. 7. […]

SNB-19 = experiment: NCI COMPARE panel (SRB growth inhibition), SNB-19; type: cell-based; conditions: Homo sapiens; CNS Cancer, SNB-19, 48 h
Experimental: (§1) The human tumor cell lines of the cancer screening panel are grown in RPMI 1640 medium containing 5% fetal bovine serum and 2 mM L-glutamine. For a typical screening experiment, cells are inoculated into 96 well microtiter plates in 100 µL at plating densities ranging from 5,000 to 40,000 cells/well depending on the doubling time of individual cell lines. After cell inoculation, the microtiter plates are incubated at 37° C., 5% CO2, 95% air and 100% relative humidity for 24 h prior to addition of experimental drugs.
(§2) After 24 h, two plates of each cell line are fixed in situ with TCA, to represent a measurement of the cell population for each cell line at the time of drug addition (Tz). Experimental drugs are solubilized in dimethyl sulfoxide at 400-fold the desired final maximum test concentration and stored frozen prior to use. […]
(§3) Following drug addition, the plates are incubated for an additional 48 h at 37° C., 5 % CO2, 95% air, and 100% relative humidity. […] Bound stain is subsequently solubilized with 10 mM trizma base, and the absorbance is read on an automated plate reader at a wavelength of 515 nm. […] Using the seven absorbance measurements [time zero, (Tz), control growth, (C), and test growth in the presence of drug at the five concentration levels (Ti)], the percentage growth is calculated at each of the drug concentrations levels. Percentage growth inhibition is calculated as: […]

HT29 = experiment: NCI COMPARE panel (SRB growth inhibition), HT29; type: cell-based; conditions: Homo sapiens, HT-29; Colon Cancer, HT29, 48 h
Experimental: as §1, §2, §3

SK-MEL-5 = experiment: NCI COMPARE panel (SRB growth inhibition), SK-MEL-5; type: cell-based; conditions: Homo sapiens; Melanoma, SK-MEL-5, 48 h
Experimental: as §1, §2, §3

`CS(=O)(=O)Nc1cc(-c2ccc3ncnc(Nc4cccc(Cl)c4F)c3c2)cnc1Cl` [Compound 6, N-[2-chloro-5-[4-(3-chloro-2-fluoro-anilino)quinazolin-6-yl]-3-pyridyl] methanesulfonamide] was tested. Which pIC50 (DNA-PK; DNA-PK) did it give?
Its pIC50 is no less than 8.70.

And the inhibition at 0.1 µM (DNA-PK)?
Its inhibition at 0.1 µM is greater than 90%.

What about the GI50 (SNB-19) of the same compound?
The GI50 was 125 to 250 nM.

What about the GI50 (HT29) of the same compound?
Its GI50 is 125 to 250 nM.

What about the GI50 (SK-MEL-5) of the same compound?
Its GI50 is 125 to 250 nM.

Which results are given for `CS(=O)(=O)Nc1cc(-c2ccc3ncc(C#N)c(Nc4cccc(Cl)c4F)c3c2)cnc1Cl` [Compound 10, N-[2-chloro-5-[4-(3-chloro-2-fluoro-anilino)-3-cyano-6-quinolyl]-3-pyridyl]methanesulfonamide]?
inhibition at 0.1 µM (DNA-PK): > 90%; GI50 (SNB-19): 125 to 250 nM; GI50 (HT29): > 250 nM; GI50 (SK-MEL-5): ≤ 75 nM

Reference: patent US20230133958A1, “COMPOUNDS USEFUL IN MODULATING EGFR AND PI3K” (Mekanistic Therapeutics LLC, priority 2021, published 2023)
